How the values were obtained:
[1] = biological target: T1, erbB2 tyrosine kinase (Homo sapiens, UniProt P04626); experiment: Protein tyrosine kinase phosphorylation assay, Test (a), erbB2; type: biochemical; settings: ATP at Km concentration; read-out: IC50 Test (a): Inhibition of erbB2 tyrosine kinase protein phosphorylation
T1 construct: Recombinant intracellular fragments of EGFR, erbB2 and erbB4; made in house; host or cells: baculovirus/Sf21 insect cells
Description: (§1) a) Protein Tyrosine Kinase phosphorylation Assays
(§2) This test measures the ability of a test compound to inhibit the phosphorylation of a tyrosine containing polypeptide substrate by EGFR, erbB2 and erbB4 tyrosine kinase enzyme.
(§3) Recombinant intracellular fragments of EGFR, erbB2 and erbB4 (accession numbers X00588, X03363 and L07868 respectively) were cloned and expressed in the baculovirus/Sf21 system. […]
(§4) Constitutive kinase activity of these recombinant proteins was determined by their ability to phosphorylate a synthetic peptide (made up of a random co-polymer of Glutamic Acid, Alanine and Tyrosine in the ratio of 6:3:1). […]
(§5) The immobilised phospho-peptide product of the reaction was detected by immunological methods. […] After further washing, HRP activity in each well of the plate was measured colorimetrically using 22′-Azino-di-[3-ethylbenzthiazoline sulfonate (6)]diammonium salt crystals (ABTS™ from Roche) as a substrate.
(§6) Quantification of colour development and thus enzyme activity was achieved by the measurement of absorbance at 405 nm on a Molecular Devices ThermoMax microplate reader. Kinase inhibition for a given compound was expressed as an IC50 value. […] The range of phosphorylation was calculated from the positive (vehicle plus ATP) and negative (vehicle minus ATP) control values.

[2] = biological target: T2, EGFR tyrosine kinase (Homo sapiens, UniProt P00533); experiment: Protein tyrosine kinase phosphorylation assay, Test (a), EGFR; type: biochemical; settings: ATP at Km concentration; read-out: IC50 Test (a): Inhibition of EGFR tyrosine kinase protein phosphorylation
T2 construct: Recombinant intracellular fragments of EGFR, erbB2 and erbB4; made in house; host or cells: baculovirus/Sf21 insect cells
T2 sequence (P00533 669-1210 limits assumed): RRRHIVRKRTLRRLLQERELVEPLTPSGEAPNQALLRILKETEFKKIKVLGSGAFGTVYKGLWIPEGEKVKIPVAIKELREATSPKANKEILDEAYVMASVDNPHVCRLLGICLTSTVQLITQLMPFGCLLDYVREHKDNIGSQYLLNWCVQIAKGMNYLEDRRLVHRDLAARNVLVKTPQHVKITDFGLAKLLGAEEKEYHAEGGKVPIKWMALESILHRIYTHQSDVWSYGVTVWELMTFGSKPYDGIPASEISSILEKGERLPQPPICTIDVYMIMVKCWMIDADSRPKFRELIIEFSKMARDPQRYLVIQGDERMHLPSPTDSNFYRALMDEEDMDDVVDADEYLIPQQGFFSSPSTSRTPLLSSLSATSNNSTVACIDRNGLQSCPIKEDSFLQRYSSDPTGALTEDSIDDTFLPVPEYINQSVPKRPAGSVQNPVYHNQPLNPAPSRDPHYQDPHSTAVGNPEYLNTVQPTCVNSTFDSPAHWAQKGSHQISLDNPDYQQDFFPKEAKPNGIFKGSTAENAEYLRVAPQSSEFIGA
Description: as §1, §2, §3, §4, §5, §6

T1 sequence (P04626 676-1255 limits assumed): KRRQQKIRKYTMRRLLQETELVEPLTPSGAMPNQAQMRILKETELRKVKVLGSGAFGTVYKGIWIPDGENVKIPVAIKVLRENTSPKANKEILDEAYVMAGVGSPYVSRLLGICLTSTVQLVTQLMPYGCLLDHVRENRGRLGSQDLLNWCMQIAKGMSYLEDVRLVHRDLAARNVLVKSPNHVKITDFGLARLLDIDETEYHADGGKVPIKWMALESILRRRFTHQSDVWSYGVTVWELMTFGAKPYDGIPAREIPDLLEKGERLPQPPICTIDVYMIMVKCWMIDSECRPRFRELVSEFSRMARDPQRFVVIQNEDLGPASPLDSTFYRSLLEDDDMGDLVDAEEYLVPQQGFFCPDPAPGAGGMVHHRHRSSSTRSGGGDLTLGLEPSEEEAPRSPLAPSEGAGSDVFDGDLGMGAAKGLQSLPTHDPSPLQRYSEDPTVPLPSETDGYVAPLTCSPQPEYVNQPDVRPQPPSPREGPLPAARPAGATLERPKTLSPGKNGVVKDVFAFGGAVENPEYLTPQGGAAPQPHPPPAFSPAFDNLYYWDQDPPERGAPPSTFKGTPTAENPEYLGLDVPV

| SMILES | IC50 [1] [nM] | IC50 [2] [nM] |
| --- | --- | --- |
| C[C@@H](Oc1cccc2ncnc(Nc3ccc4c(ccn4Cc4ccccn4)c3)c12)C(=O)N(C)CCO [Example 1, (2R)—N-(2-Hydroxyethyl)-N-methyl-2-[(4-{[1-(pyridin-2-ylmethyl)-1H-indol-5-yl]amino}quinazolin-5-yl)oxy]propanamide] | 11 | 370 |
| C[C@@H](Oc1cccc2ncnc(Nc3ccc4c(ccn4Cc4ccccn4)c3)c12)C(=O)N(C)C [Example 2, (2R)—N,N-Dimethyl-2-[(4-{[1-(pyridin-2-ylmethyl)-1H-indol-5-yl]amino}quinazolin-5-yl)oxy]propanamide] | 15 | 170 |
